Entries after “also recorded” stand apart in the source; their conditions may differ.
Assays:
NQO-1 = NQO-1 gene expression in kidney (quantitative real-time PCR), renal ischemia and reperfusion; format: in vivo, mouse; details: L-tyrosine 100 mg/kg oral once a day for 4 days, 24 hours after ischemia and reperfusion, vs prepared solvent
Protocol: (§1) C57BL/6 male mouse (23 to 25 g, KOATECH, South Korea) was allowed to have free access to diets and water in sterile breeding room with constant temperature and humidity. The animals were divided into 3 test groups, i.e., 1) Control group (Sham), 2) Renal ischemia having treatment with prepared solvent and induced reperfusion group (CMC+IR), and 3) Renal ischemia having treatment with L-tyrosine and induced reperfusion group (L-Tyr+IR).
L-Tyrosine (100 mg/kg) was suspended in 0.5% CMC (carboxymethyl cellulose). The animal was orally administered, once a day for 4 days, with L-tyrosine or the prepared solvent CMC. Thirty minutes after the oral administration on Day 4, renal ischemia was caused. Specifically, the animal abdomen was cut and renal pedicles at both sides were clamped using a Muller atraumatic vascular clamp to cause renal ischemia. After 25 minutes of blood ischemia, the clamp was removed followed by reperfusion. The control group (Sham) received the same operational procedures as above except the ischemia using clamp. […]
According to Trizol method, total RNA was extracted from kidney tissues, and cDNA was synthesized by using Revert Aid Reverse Transcription System (ThermoFisher). Quantitative PCR was carried out with CFX Connect Real-Time PCR system (Bio-Rad) by using iQ SYBR Green Super mix (Bio-Rad). […]

[1] = tested on: high-fat diet mouse model of type 2 diabetes; assay: insulin resistance test; format: in vivo; details: HFD+L-Tyr vs HFD; 6 hours fasting, insulin 0.75 U/kg i.p., 15-90 minutes
Protocol: Twenty-seven C57BL/6 male mice (3-week old) were acclimated to the breeding condition for 1 week. […] Blood glucose was measured every week.
Insulin was diluted with physiological saline to prepare 0.15 U/ml solution. Blood glucose of a mouse, which has been subjected to fasting for 6 hours, was measured, and the animal was intraperitoneally injected with insulin (0.75 U/bodyweight (kg)). After the intraperitoneal injection of insulin, blood glucose was measured at time points of 15, 30, 60, and 90 minutes. Insulin injection amount(μl)=Bodyweight(g)×5 Formula (2)

[2] = tested on: mouse model of epileptic seizure which has been induced to have seizure by kainic acid; assay: epileptic seizure induced by kainic acid: seizure level, bodyweight, survival
Protocol: Kainic acid (KA, Abcam) was dissolved in physiological saline in hot water bath to prepare 9 mg/ml kainic acid solution. After intraperitoneal injection of kainic acid (30 mg/kg), severity level and symptoms of seizure were recorded for 2 hours. Severity level of seizure was decided based on the criteria given in the following Table 2, and also the bodyweight was measured before and 24 hours after the injection of kainic acid, and then the results are compared to each other.

MnSOD = assay: activity of MnSOD, renal ischemia and reperfusion; format: in vivo, mouse; details: L-tyrosine 100 mg/kg oral for 4 days, IR
Protocol: as §1
L-Tyrosine (100 mg/kg) was suspended in 0.5% CMC (carboxymethyl cellulose). The animal was orally administered, once a day for 4 days, with L-tyrosine or the prepared solvent CMC. Thirty minutes after the oral administration on Day 4, renal ischemia was caused. Specifically, the animal abdomen was cut and renal pedicles at both sides were clamped using a Muller atraumatic vascular clamp to cause renal ischemia. After 25 minutes of blood ischemia, the clamp was removed followed by reperfusion. The control group (Sham) received the same operational procedures as above except the ischemia using clamp. Twenty-four hours after the reperfusion, the test animal was sacrificed, blood was collected from the heart, and the tissues were harvested.

[3] = tested on: chronic immobilization stress group (STR); assay: corticosterone amount in plasma (ELISA), chronic immobilization stress; format: in vivo, mouse; details: tyrosine diet (181.2 mg/kg) compared to normal diet, p<0.05
Protocol: Each of the blood and PFC sample was obtained from a mouse anesthetized with CO2 gas. Specifically, mouse blood was collected between 9 AM and 11 AM and stored in a K3EDTA-coated vacuum container. Plasma was obtained by centrifuge for 10 minutes at 4° C., 500×g. PFC sample was weighed first, and, after lysis of the tissues by using Bullet homogenizer, subjected to centrifuge for 20 minutes at 4° C., 12,000 rpm. Thus-obtained plasma and tissue lysate were kept at −80° C. until use. After that, the animal was sacrificed, and a change in corticosterone amount in plasma was examined. ROS/RNS in plasma and PFC was also examined. The corticosterone amount was examined using an ELISA kit (Cayman) by following the manufacturer's protocol, and ROS/RNS was also examined using an ROS/RNS assay kit (Cell Biolabs, San Diego, CA, USA) by following the manufacturer's protocol. The animal models were divided into two groups (i.e., normal group and stress group). The animal of stress group was individually brought by force to a restrainer for 2 hours every day (i.e., between 2 PM and 4 PM) so that it was applied with chronic immobilization stress for 15 days. Change in bodyweight and food intake amount were measured every other day. The normal group and stress group were divided again into a normal diet group and a tyrosine-supplemented diet group (181.2 mg/kg), and then fed.

[4] = tested on: mouse model of epileptic seizure which has been induced to have seizure by kainic acid; assay: ROS/RNS in hippocampal tissues after kainic acid; format: in vivo; details: mouse survived after kainic acid, tyrosine diet vs ND
Protocol: Hippocampus in brain tissues was added with RIPA (containing proteinase/phosphatase inhibitor), in an amount of 100 μl per 10 mg of the tissues, and then lysed for 1 minute by using glass beads and a bullet blender. Supernatant was separated by centrifuge for 15 minutes at 12,000×g, 4° C., and, after 10-fold dilution with PBS, used for measurement of ROS/RNS. Concentration of ROS/RNS was measured by using Oxiselect ROS/RNS assay kit (Cell Biolabs) according to the recommended experimental protocol.

[5] = tested on: mouse model of chronic immobilization stress; assay: object recognition test (ORT); format: in vivo; details: D-Tyr-containing diet (181 mg D-Tyr/kg AIN-93G), chronic stress 14 days
Protocol: Twenty-eight C57BL/6 male mice (7-week old) were divided into two groups, each group provided for 1 week with a normal diet or D-tyrosine (D-Tyr)-containing diet (181 mg D-Tyr/kg AIN-93G).
Once the animals become 8-week old, they were applied with chronic immobilization stress (CIS) under light condition of 200 lux, 2 hours per day for 2 weeks. The animals were divided into the control group (CTL), D-Tyr diet control group (CTL+D-Tyr), chronic stress group (STR), and D-Tyr diet chronic stress group (STR+D-Tyr), in which each group consists of 7 animals.
Upon the completion of the CIS for 2 weeks, a cognitive function test was carried out. To compare the cognitive function between the group provided with D-Tyr-containing diet over the entire test period including habituation period and normal feed diet group, an object recognition test (ORT) and an object location recognition test (OLT) for testing long-term memory skills were carried out.
ORT: The test consists of three stages, i.e., habituation, familiarization, and test. The animals were habituated in a test box, 10 minutes per day for 2 days. At the familiarization stage on Day 3, they were allowed to explore two identical objects for 10 minutes. […] The object recognition function index (i.e., discrimination index: DI) was calculated based on the following formula (3). […]

mouse PFC protein = assay: inhibitory effect on in vitro nitration of mouse PFC protein induced by ONOO−; format: biochemical; details: mouse PFC protein treated with ONOO−
From the text: By treating mouse PFC protein with ONOO^−, protein nitration was induced and the inhibitory effect on nitration by tyrosine was examined.

Structure (SMILES) | expression of NQO-1 gene in kidney (NQO-1) | blood glucose amount, insulin resistance test [1] | severity of seizure ([2]; ICR mouse, L-Tyr diet 181, 543 or 905 mg/kg for 1 week, kainic acid 30 mg/kg i.p., 2 hours) | mouse death ([2]; depending on intake amount of tyrosine, kainic acid 30 mg/kg i.p.) | survival ([2]; diet with feeds containing tyrosine 900 mg/kg (actual intake amount)) | activity of MnSOD (MnSOD) | corticosterone amount in plasma [3] | ROS/RNS amount in hippocampal tissues [4] | ORT (object recognition function index, DI) [5] | inhibitory effect on nitration of proteins (mouse PFC protein)
N[C@@H](Cc1ccc(O)cc1)C(=O)O [L-tyrosine] | statistically significant increase in the expression of NQO-1 gene | statistically significant decrease in blood glucose amount | – | – | – | – | – | – | – | –
N[C@@H](Cc1ccc(O)cc1)C(=O)O [tyrosine] | – | – | severity of seizure is gradually reduced depending on tyrosine amount | improvement in mouse death was also observed depending on intake amount of tyrosine | all of the mice have survived | again recovered | statistically significant decrease in corticosterone amount | reduced to the level of the control group; also recorded: statistically significant decrease in ROS/RNS amount | no statistically significant difference | nitration of the proteins is inhibited in tyrosine concentration dependent manner

Reference: US12605350B2, “Composition for preventing, ameliorating, or treating disease caused by nitration of tyrosine in proteins comprising tyrosine as effective component” (INDUSTRY-ACADEMIC COOPERATION FOUNDATION GYEONGSANG …, priority 2020, dated 2026)
